Experimental findings from ChEMBL document CHEMBL5143737, “Identification of Human Alanine-Glyoxylate Aminotransferase Ligands as Pharmacological Chaperones for Variants Associated with Primary Hyperoxaluria Type 1” (J Med Chem, 2022) are described below.

Each structure is given as a SMILES string.

Assay type in all cases: toxicity, cell-based, Cricetulus griseus
Holding throughout (settings): chinese hamster, 168 h, time 7 day

The subject of data set [1] is CHO. Description: Cytotoxicity against CHO cells expressing AGT and glycolate oxidase assessed as reduction in cell viability at 50 uM measured after 7 days by crystal violet staining assay.
The test system of data set [2] is CHO. Description: Cytotoxicity against CHO cells expressing AGT G41R variant and glycolate oxidase assessed as reduction in cell viability at 50 uM measured after 7 days by crystal violet staining assay.
In data set [3] the test system is CHO. Description: Cytotoxicity against CHO cells expressing AGT G41R variant and glycolate oxidase assessed reduction in cell viability at 50 uM measured after 7 days in presence of pyridoxine by crystal violet staining assay.

On to `Cl.NOCc1ccc(F)cc1F`, for which the Activity entry in the data set on CHO [1] and in the data set with CHO [2] was “Non-Toxic” each time.

Regarding `NOCc1cc2ccccc2s1`, the Activity entry in the data set on CHO [1] was “Non-Toxic”.

As to `COc1c(C)cnc(CON)c1C`, the Activity entry with CHO [1], in the data set on CHO [3] and in the data set on CHO [2] was “Non-Toxic” each time.

Turning to `NOCc1cccc(-c2ccc(C(F)(F)F)cc2)c1`, the Activity result in the data set with CHO [1], in the data set on CHO [3] and with CHO [2] was “Non-Toxic” throughout.

`CN1CCN(c2cccc(CON)c2)CC1`: the Activity entry in the data set with CHO [1], in the data set on CHO [3] and in the data set on CHO [2] was “Toxic” each time.
